Test results taken from patent US11306117B2, “Whitening composition containing novel quercetin-based compound” (AMOREPACIFIC CORPORATION, priority 2017, dated 2022).

Test system: Mel-Ab cell line
Test: Inhibition of melanogenesis in Mel-Ab cells (method of Dooley)
Type: cell-based, C57BL/6
Settings: melanin by absorbance at 400 nm after 5 days
Protocol: The effects of New Materials 31 and 32 on inhibiting melanogenesis were compared with Kojic acids which have been known to have an excellent skin whitening effect, and measured.
Specifically, the degree of melanogenesis in cells was measured by a method of Dooley. As the cell line, Mel-Ab cell line (Falcon, U.S.A.) derived from a skin pigment of C57BL/6 was used. Culturing was made under the condition of 37° C., 5% CO2 of a DMEM medium containing 10% placenta serum, 100 nM 12-O-tetradecanoylphorbol-13-acetate, and 1 nM Cholera Toxin. The test materials were treated in the manner where the cultured Mel-Ab cell was isolated with 0.25% trypsin-EDTA, and inoculated again with the same number (1×10^5 cells/well) in the 24-well plate, and then the medium was replaced with a medium containing the test materials for two days from the second day. As the test materials, 5 ppm, 10 ppm, 25 ppm and 50 ppm of New Materials 31 and 32, 25 ppm, 50 ppm and 100 ppm of Kojic acids and DMSO (control) were used. After 5 days, the test materials were treated with 1N-NaOH to dissolve melanin contained in the cell, and the amount of melanin was measured by measuring absorbance at 400 nm. The concentration (IC50) of the material necessary for reducing melanogenesis of melanocyte by half was calculated, and the results are shown in following Table 4.

Structure (SMILES): C[C@@H]1O[C@@H](OC[C@H]2O[C@@H](Oc3c(-c4ccc(O)c(O)c4)oc4cc(O)cc(O)c4c3=O)[C@H](O)[C@@H](OC(=O)/C=C/c3ccc(O)cc3)[C@@H]2O)[C@H](O)[C@H](O[C@@H]2O[C@H](CO)[C@@H](O)[C@H](O)[C@H]2O)[C@H]1O [New Material 31, quercetin3-O-[3-O″-(E)-p-coumaroyl][β-D-glucopyranosyl-(1→3)-O-α-L-rhamnopyranosyl-(1→6)-O-β-D-glucopyranoside]]
- IC50 inhibiting melanogenesis: 23.5 ppm

Structure (SMILES): C[C@@H]1O[C@@H](OC[C@H]2O[C@@H](Oc3c(-c4ccc(O)c(O)c4)oc4cc(O)cc(O)c4c3=O)[C@H](O)[C@@H](OC(=O)/C=C/c3ccc(O)cc3)[C@@H]2O)[C@H](O)[C@H](O)[C@H]1O [New Material 32, quercetin3-O-[3-O″-(E)-p-coumaroyl][α-L-rhamnopyranosyl-(1→6)-O-β-D-glucopyranoside]]
- IC50 inhibiting melanogenesis: 23.5 ppm
